US5952349A, “Muscarinic antagonists for treating memory loss” (Schering Corporation, priority 1997, dated 1999)
Where two headings read alike, the source gives them in different places.

Assays:
[1] = molecular target: T1, cloned human m1 muscarinic receptor (Homo sapiens, UniProt P11229); assay: Muscarinic binding activity: inhibition of 3H-QNB binding, m1
T1 construct: expressed in transfected cells; host or cells: CHO cells, stably transfected (membranes)
T1 sequence (P11229 1-460): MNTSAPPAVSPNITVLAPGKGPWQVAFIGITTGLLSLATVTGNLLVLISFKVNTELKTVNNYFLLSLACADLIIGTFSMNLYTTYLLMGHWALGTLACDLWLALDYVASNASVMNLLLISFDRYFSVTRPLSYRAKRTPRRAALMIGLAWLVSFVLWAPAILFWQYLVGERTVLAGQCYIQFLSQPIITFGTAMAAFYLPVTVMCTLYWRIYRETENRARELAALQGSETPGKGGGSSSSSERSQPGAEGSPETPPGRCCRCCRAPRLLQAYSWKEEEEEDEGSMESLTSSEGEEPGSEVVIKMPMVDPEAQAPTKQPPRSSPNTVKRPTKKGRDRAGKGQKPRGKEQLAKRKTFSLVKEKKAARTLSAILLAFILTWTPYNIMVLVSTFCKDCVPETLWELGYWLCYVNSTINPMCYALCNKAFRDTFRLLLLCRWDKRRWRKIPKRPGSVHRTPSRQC

[2] = molecular target: T2, cloned human m2 muscarinic receptor (Homo sapiens, UniProt P08172); assay: Muscarinic binding activity: inhibition of 3H-QNB binding, m2 (and m2 selectivity); settings: for m2 Selectivity Ratio (Ki,m1/Ki,m2): Ki for m1 divided by Ki for m2, higher = greater m2 selectivity
T2 construct: expressed in transfected cells; host or cells: CHO cells, stably transfected (membranes)
T2 sequence (P08172 1-466): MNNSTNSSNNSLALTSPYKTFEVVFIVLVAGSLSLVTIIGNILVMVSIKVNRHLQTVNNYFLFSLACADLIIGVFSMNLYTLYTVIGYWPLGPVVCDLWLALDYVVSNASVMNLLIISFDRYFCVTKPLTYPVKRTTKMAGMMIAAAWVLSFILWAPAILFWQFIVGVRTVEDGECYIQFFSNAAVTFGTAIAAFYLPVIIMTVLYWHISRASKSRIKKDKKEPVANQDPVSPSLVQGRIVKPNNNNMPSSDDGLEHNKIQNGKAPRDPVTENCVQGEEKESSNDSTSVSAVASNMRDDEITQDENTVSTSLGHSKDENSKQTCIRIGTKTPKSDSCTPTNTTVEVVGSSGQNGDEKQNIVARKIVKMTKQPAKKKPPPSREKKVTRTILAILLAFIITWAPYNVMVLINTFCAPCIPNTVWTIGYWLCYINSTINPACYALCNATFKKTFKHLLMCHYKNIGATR

[3] = molecular target: T3, cloned human m4 muscarinic receptor (Homo sapiens, UniProt P08173); assay: Muscarinic binding activity: inhibition of 3H-QNB binding, m4 (and m4 selectivity); settings: for m4 Selectivity Ratio (Ki,m4/Ki,m2): Ki for m4 divided by Ki for m2
T3 construct: expressed in transfected cells; host or cells: CHO cells, stably transfected (membranes)
T3 sequence (P08173 1-479): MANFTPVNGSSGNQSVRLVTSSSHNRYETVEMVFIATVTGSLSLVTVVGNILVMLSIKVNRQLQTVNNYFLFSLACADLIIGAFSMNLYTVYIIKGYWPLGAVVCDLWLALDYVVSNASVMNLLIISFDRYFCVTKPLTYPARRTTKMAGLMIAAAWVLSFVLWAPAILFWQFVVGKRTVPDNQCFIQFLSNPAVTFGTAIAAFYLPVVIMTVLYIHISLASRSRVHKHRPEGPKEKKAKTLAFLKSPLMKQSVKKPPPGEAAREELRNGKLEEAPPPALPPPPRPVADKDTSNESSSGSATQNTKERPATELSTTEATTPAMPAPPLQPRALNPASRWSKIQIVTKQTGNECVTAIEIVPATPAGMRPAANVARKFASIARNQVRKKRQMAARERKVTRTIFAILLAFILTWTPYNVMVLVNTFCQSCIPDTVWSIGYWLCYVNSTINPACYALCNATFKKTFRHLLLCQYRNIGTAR

[4] = tested on: m2 muscarinic; settings: Baumgold et al., Eur. J. of Pharmacol., 251, (1994) 315-317; cited from earlier work
[5] = 3H-QNB binding, membranes of transfected CHO cells, 25° C., 90 minutes, pH 7.4, read-out: Ki, m1
[6] = 3H-QNB binding, membranes of transfected CHO cells, 25° C., 90 minutes, pH 7.4, read-out: Ki, m2
[7] = 3H-QNB binding, membranes of transfected CHO cells, 25° C., 90 minutes, pH 7.4, read-out: Ki, m4

Compound	Ki [1, 5]	Ki [2, 6]	m2 Selectivity Ratio (Ki,m1/Ki,m2) [2]	Ki [3, 7]	m4 Selectivity Ratio (Ki,m4/Ki,m2) [3]	Ki [1]	Ki [2]	Ki [3]	m2 muscarinic antagonist selectivity [4]
COc1ccc([S+]([O-])c2ccc(N(C#N)C3CCN(C4CCCCC4)CC3)cc2)cc1 (stereo not shown) [Example 2E]	189 nM	9 nM	21.0	39.3 nM	4.4	–	–	–	–
N#CN(c1ccc(S(=O)(=O)c2ccc3c(c2)OCO3)cc1)C1CCN(C2CCCCC2)CC1 [Example 2AC]	10 nM	0.44 nM	22.7	1.6 nM	3.6	–	–	–	–
COc1ccc(S(=O)(=O)c2ccc(N(C)C3CCN(C4CCCCC4)CC3)cc2)cc1 [Example 2G]	–	–	18.8	–	3.3	285 nM	15.2 nM	50 nM	–
C=CCN(c1ccc(S(=O)(=O)c2ccc(OC)cc2)cc1)C1CCN(C2CCCCC2)CC1 [Example 2I]	–	–	12.7	–	2.7	47.1 nM	3.7 nM	10.1 nM	–
C[C@H]1CC[C@@H]2N(C1)C[C@H]1[C@@H]3C[C@H]4[C@@H](CC(=O)[C@H]5C[C@@H](Cl)CC[C@@]54C)[C@@H]3CC[C@H]1[C@]2(C)O [3-α-chloroimperialine]	–	–	–	–	–	–	–	–	highly selective m2 muscarinic antagonist
CC(=O)Nc1ccc([S+]([O-])c2ccc(N(C#N)C3CCN(C4CCCCC4)CC3)cc2)cc1 (stereo not shown) [Example 2AM]	212 nM	13.7 nM	15.5	41.4 nM	3.0	–	–	–	–
N#CN(c1ccc(S(=O)(=O)C2CCCCC2)cc1)C1CCN(C2CCCCC2)CC1 [Example 2AK]	232 nM	18.8 nM	17.2	25.5 nM	1.4	–	–	–	–
